Test results from paper PMC5130005, “Indolin-2-one compounds targeting thioredoxin reductase as potential anticancer drug leads” (Oncotarget, 2016).

Tests used:
HCT 116 cells [1] = assay: apoptosis induction by Western blot of cleaved caspase 3 and PARP; format: cell-based, human; conditions: 10 h
Procedure: (§1) Cells were seeded onto 100 mm or 60 mm culture plates and upon reaching ~70% confluency, they were subjected to drug treatment for indicated durations. Pellets of compound-treated or DMSO control cells comprising both attached and floating cells were collected and lysed in lysis buffer (25 mM Tris-HCl pH 7.5, 100 mM NaCl, 2.5 mM EDTA, 2.5 mM EGTA, 20 mM NaF, 1 mM Na3VO4, 20 mM sodium β-glycerophosphate, 10 mM sodium pyrophosphate, 0.5% Triton X-100) with freshly added protease inhibitor cocktail (Roche Diagnostics). Prior to being used in Western blot analysis and/or cellular TrxR, GR, Trx and GPx activity determination, lysates were precleared by centrifugation and protein concentrations were determined using a modified Bradford assay (Bio-Rad Laboratories) as described in the manufacturer's manual. This procedure for collecting whole cell lysate was used for all experiments except for the Trx-redox state determination experiment. Equal amounts of protein (50 μg) in each lysate sample were separated by SDS-PAGE, followed by electroblotting onto nitrocellulose membranes. Electroblotted proteins on membranes were probed with a primary antibody and subsequently by a secondary antibody conjugated to HRP.

[2] = target: T1, TrxR in Keap1-null (Keap1−/−) MEFs (Mus musculus, UniProt Q9JMH6); assay: TrxR activity in Keap1-null MEF lysates; format: cell-based; conditions: 5 h treatment, 20 to 40 μM
T1 sequence (Q9JMH6 115-613 limits assumed): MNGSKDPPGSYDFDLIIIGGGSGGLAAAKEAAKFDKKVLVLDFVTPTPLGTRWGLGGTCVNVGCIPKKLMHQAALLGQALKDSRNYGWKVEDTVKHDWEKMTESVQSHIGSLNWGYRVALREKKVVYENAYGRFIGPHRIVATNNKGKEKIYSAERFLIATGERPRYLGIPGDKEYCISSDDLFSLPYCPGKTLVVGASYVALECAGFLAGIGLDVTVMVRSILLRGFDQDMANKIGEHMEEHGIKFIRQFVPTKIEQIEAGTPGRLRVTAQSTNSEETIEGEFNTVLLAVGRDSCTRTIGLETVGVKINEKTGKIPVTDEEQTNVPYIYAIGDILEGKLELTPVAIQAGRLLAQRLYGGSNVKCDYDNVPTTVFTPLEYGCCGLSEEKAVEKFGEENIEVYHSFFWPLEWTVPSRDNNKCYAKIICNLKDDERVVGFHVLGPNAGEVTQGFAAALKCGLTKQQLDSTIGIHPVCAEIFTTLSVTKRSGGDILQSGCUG
Procedure: as §1, with “Equal amounts of protein (50 μg) in each lysate sample were separated by SDS-PAGE, followed by electroblotting onto nitrocellulose membranes. Electroblotted proteins on membranes were probed with a primary antibody and subsequently by a secondary antibody conjugated to HRP.” left out
Freshly collected cell lysates were used for measurement of activity of cellular Trx and TrxR. […] The amount of free thiols generated from insulin reduction was determined by DTNB reduction at 412 nm using the VersaMax microplate reader. […] For each sample, Trx or TrxR activity was calculated as the absorbance at 412 nm subtracted from that of the corresponding control and expressed as a percentage of the activity measured in DMSO-treated cells.

yeast GR = target: T2, yeast GR (Saccharomyces cerevisiae, UniProt P41921); assay: in vitro yeast GR activity (glutathione reduction assay); format: biochemical; conditions: 60 min incubation, 1-100 μM, 20 nM yeast GR, 200 μM NADPH
T2 construct: purchased Sigma
T2 sequence (P41921 17-483 limits assumed): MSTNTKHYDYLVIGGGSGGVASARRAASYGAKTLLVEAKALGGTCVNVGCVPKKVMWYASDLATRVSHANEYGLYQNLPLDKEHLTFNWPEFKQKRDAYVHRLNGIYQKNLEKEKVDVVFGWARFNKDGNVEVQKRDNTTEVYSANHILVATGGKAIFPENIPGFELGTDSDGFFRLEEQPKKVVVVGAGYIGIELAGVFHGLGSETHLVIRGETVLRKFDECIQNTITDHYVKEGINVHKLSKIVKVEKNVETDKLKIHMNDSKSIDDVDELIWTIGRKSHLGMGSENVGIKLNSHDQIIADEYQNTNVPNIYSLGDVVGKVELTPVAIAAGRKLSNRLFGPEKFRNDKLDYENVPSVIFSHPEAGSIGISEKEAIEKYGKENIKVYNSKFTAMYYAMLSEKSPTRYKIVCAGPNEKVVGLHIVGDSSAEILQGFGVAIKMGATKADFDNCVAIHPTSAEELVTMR
Procedure: To determine in vitro yeast GR activity, compounds of concentrations 1-100 μM were incubated with 20 nM yeast GR and 200 μM NADPH in a volume of 100 μl phosphate buffer (0.1 M sodium phosphate, 2 mM EDTA pH 7.5) for 1 h at room temperature. At the end of the incubation, 100 μl of […] GSSG (final concentration 500 μM) and 200 μM NADPH in phosphate buffer was added to each well. NADPH consumption was monitored by measurement of absorbance at 340 nm using the VersaMax microplate reader. The results were calculated based on decrease in absorbance in the initial 90 s and expressed as a percentage of the enzyme activity of the DMSO-treated sample. For determination of cellular GR activity, 25 μg of cell lysate was mixed with a solution of GSSG and NADPH in phosphate buffer to a final volume of 200 μl (final GSSG and NADPH concentrations 1 mM and 200 μM respectively). The enzyme activity was determined by measuring the decrease in absorbance at 340 nm for 10 min at 37°C and expressed as a percentage of the enzyme activity of that of the DMSO-treated sample.

HCT 116 cells [3] = assay: total cellular thiols; format: cell-based, human; conditions: 20-50 μM

SMILES | apoptosis induction (cleaved caspase 3 and PARP) (HCT 116 cells [1]) | TrxR activity in Keap1−/− MEFs [2] | yeast GR activity (yeast GR) | total cellular thiols (HCT 116 cells [3])
CC(=O)/C=C1/C(=O)N(Cc2ccccc2)c2ccccc21 [Compound 5] | Dose-dependent induction of apoptosis | elevated TrxR activity | uninhibited | depletion of total cellular thiols in a dose-dependent manner
CC(=O)C=C1C(=O)N(C)c2ccccc21 [Compound 1, 1-methyl-3(2-oxopropylidene)indolin-2-one] |  |  | uninhibited | 
CN1C(=O)/C(=C/C(=O)c2ccccc2)c2ccccc21 [Compound 6] |  |  | uninhibited | 
CCCCN1C(=O)/C(=C/C(C)=O)c2ccccc21 [Compound 4] | Dose-dependent induction of apoptosis | elevated TrxR activity | uninhibited | depletion of total cellular thiols in a dose-dependent manner
